Results from article PMC9636949 (Proceedings of the National Academy of Sciences of the …, 2022).

Tests used:
[1] = target: T1, human α7-AChR (Homo sapiens, UniProt P36544); conditions: pH 7.4; cited from earlier work
[2] = target: T1, human α7-AChR; format: binding; conditions: read-out: Unlabeled-ligand half-competition concentration; pH 7.4

T1 sequence (P36544 23-502): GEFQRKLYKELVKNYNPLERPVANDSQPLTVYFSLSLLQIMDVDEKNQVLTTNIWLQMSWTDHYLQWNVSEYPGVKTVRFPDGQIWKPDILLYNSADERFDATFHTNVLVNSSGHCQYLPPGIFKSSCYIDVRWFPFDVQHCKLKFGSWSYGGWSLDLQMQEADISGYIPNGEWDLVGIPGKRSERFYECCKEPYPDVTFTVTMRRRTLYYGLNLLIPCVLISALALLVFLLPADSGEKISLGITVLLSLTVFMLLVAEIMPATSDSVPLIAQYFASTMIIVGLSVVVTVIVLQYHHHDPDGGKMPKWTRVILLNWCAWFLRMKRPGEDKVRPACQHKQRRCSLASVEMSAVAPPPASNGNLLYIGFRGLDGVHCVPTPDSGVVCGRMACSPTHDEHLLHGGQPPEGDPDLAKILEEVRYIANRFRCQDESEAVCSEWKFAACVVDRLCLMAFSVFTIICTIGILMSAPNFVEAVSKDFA

Row | SMILES | Unlabeled-ligand nH (Hill coefficient) [1] | IC50 [2] [µM]
1 | C[N+](C)(C)CCO [Choline, choline] | 1.28 ± 0.08 | –
2 | CC[N+](C)(C)C [ETMA] | – | 15.6 ± 1.09
3 | CN1CCC[C@H]1c1cccnc1 [Nicotine, nicotine] | 1.41 ± 0.06 | –
4 | C[N+](C)(C)C [TMA, tetramethylammonium] | – | 11.4 ± 1.33
